Experimental data taken from patent US7173004B2, “Macrocyclic isoquinoline peptide inhibitors of hepatitis C virus” (Bristol-Myers Squibb Company, priority 2003, dated 2007).
Where a name gives a salt, the structure may show the parent alone.

tested on: HCV replicon (HCV 1b-377-neo replicon cells, Huh7); test: HCV replicon cell-based FRET assay; details: Hepatitis C virus, Huh-7
Method: HCV Replion assays were utilized in the present invention, and were prepared, conducted and validated as follows:
An HCV replicon whole cell system was established as described by Lohmann V, Korner F, Koch J, Herian U, Theilmann L, Bartenschlager R., Science 285(5424): 110–3 (1999). This system enabled us to evaluate the effects of our HCV Protease compounds on HCV RNA replication. Briefly, using the HCV strain 1B sequence described in the Lohmann paper (Assession number: AJ238799), an HCV cDNA was synthesized by Operon Technologies, Inc. (Alameda, Calif.), and the full-length replicon was then assembled in plasmid pGem9zf(+) (Promega, Madison, Wis.) using standard molecular biology techniques. The replicon consists of (i) the HCV 5′ UTR fused to the first 12 amino acids of the capsid protein, (ii) the neomycin phosphotransferase gene (neo), (iii) the IRES from encephalomyocarditis virus (EMCV), and (iv) HCV NS3 to NS5B genes and the HCV 3′ UTR. Plasmid DNAs were linearized with ScaI and RNA transcripts were synthesized in vitro using the T7 MegaScript transcription kit (Ambion, Austin, Tex.) according to manufacturer's directions. To generate cell lines, 4×10^6 Huh-7 cells (kindly provided by R. Bartenschlager and available from Health Science Research Resources Bank, Japan Health Sciences Foundation) were electroporated (GenePulser System, Bio-Rad) with 10 microgram(“μg”) of RNA transcript and plated into 100-mm dishes. After 24 h, selective media containing 1.0 milligrams/milliliter (“mg/ml”) G418 was added and media was changed every 3 to 5 days. Approximately 4 weeks after electroporation, small colonies were visible which were isolated and expanded for further analysis. These cell lines were maintained at 37° C., 5% CO2, 100% relative humidity in DMEM (Cat# 11965-084) Gibco-BRL, Rockville, Md., with 10% heat inactivated calf serum (Sigma), 10 ml of 100× penicillin/streptomycin (Cat# 15140-122) Gibco-BRL, Rockville, Md., Geneticin (Cat# 10131-027) Gibco-BRL, Rockville, Md. at 1 mg/ml. One of the cell lines (deposited as ATCC Accession No. PTA-4583 in the American Type Culture Collection) which had approximately 3,000 copies of HCV replicon RNA/cell was used for development of the assay (HCV 1b-377-neo replicon cells).
Huh7 cells, constitutively expressing the HCV replicon, were grown in Dulbecco's Modified Eagle Media (DMEM) containing 10% Fetal calf serum (FCS) and 1 mg/ml G418 (Gibco-BRL). Cells were seeded the night before (1.5×10^4 cells/well) in 96-well tissue-culture sterile plates. Compound and no compound controls were prepared in DMEM containing 4% FCS, 1:100 Penicillin/Streptomysin, 1:100 L-glutamine and 5% DMSO in the dilution plate (0.5% DMSO final concentration in the assay). Compound/DMSO mixes were added to the cells and incubated for 4 days at 37° C. After 4 days, cells were first assessed for cytotoxicity using alamar Blue (Trek Diagnotstic Systems) for a CC50 reading. The toxicity of compound (CC50) was determined by adding 1/10th volume of alamar Blue to the media incubating the cells. After 4 hr, the fluorescence signal from each well was read, with an excitation wavelength at 530 nm and an emission wavelength of 580 nm, using the Cytofluor Series 4000 (Perspective Biosystems). Plates were then rinsed thoroughly with Phosphate-Buffered Saline (PBS) (3 times 150 μl). The cells were lysed with 25 μl of a lysis assay reagent containing an HCV protease substrate (5× cell Luciferase cell culture lysis reagent (Promega #E153A) diluted to 1× with distilled water, NaCl added to 150 mM final, the FRET peptide diluted to 10 μM final from a 2 mM stock in 100% DMSO). The HCV protease substrate (FRET peptide; AnaSpec, Inc. cat #22991, described by Taliani et al. in Anal. Biochem. 240(2):60–67 (1996)) contains a fluorescence donor, EDANS, near one end of the peptide and an acceptor, DABCYL, near the other end. […]

SMILES	EC50 [nM]
CC(C)OC(=O)N[C@H]1CCCCC/C=C\[C@@H]2C[C@@]2(C(=O)NS(=O)(=O)C2CC2)NC(=O)[C@@H]2C[C@@H](Oc3nccc4ccccc34)CN2C1=O [Compound 16, [4-Cyclopropanesulfonylaminocarbonyl-18-(isoquinolin-1-yloxy)-2,15-dioxo-3,16-diaza-tricyclo[14.3.0.0^4,6]nonadec-7-en-14-yl]-carbamic acid isopropyl ester]	< 50
CCC1(S(=O)(=O)NC(=O)C23CC2C=CCCCCCC(NC(=O)OC(C)(C)C)C(=O)N2CC(Oc4nccc5cc(OC)ccc45)CC2C(=O)N3)CC1 (stereo not drawn) [Compound 54]	< 50
COc1ccc2c(OC3CC4C(=O)NC5(C(=O)NS(=O)(=O)C6(C)CC6)CC5C=CCCCOC(C)C(NC(=O)NC5CCCC5)C(=O)N4C3)nccc2c1 (stereo not drawn) [Compound 69]	< 50
COc1ccc2c(O[C@@H]3C[C@H]4C(=O)N[C@]5(C(=O)O)C[C@H]5/C=C\CCCSC(C)(C)[C@H](NC(=O)OC(C)(C)C)C(=O)N4C3)nccc2c1 [Compound 79, (1S,4R,6S,14R,18R)-7-cis-14-tert-Butoxycarbonylamino-13,13-dimethyl-18-(6-methoxy-isoquinolin-1-yloxy)-2,15-dioxo-12-thia-3,16-diazatricyclo[14.3.0.0^4,6]nonadec-7-ene-4-carboxylic acid]	5000 to 50000
COc1ccc2c(OC3CC4C(=O)NC5(C(=O)NS(=O)(=O)C6(C)CC6)CC5C=CCCCOC(C)C(NC(=O)OC(C)(C)C)C(=O)N4C3)nccc2c1 (stereo not drawn) [Compound 66]	50 to 500
CCCNC(=O)NC1CCCCCC=CC2CC2(C(=O)NS(=O)(=O)C2CC2)NC(=O)C2CC(Oc3nccc4ccccc34)CN2C1=O (stereo not drawn) [Compound 23]	< 50
COc1ccc2c(OC3CC4C(=O)NC5(C(=O)NS(=O)(=O)C6CC6)CC5C=CCOCCCC(NC(=O)OCC(C)(C)C)C(=O)N4C3)nccc2c1 (stereo not drawn) [Compound 32]	< 50
CC(C)S(=O)(=O)NC(=O)[C@@]12C[C@H]1/C=C\CCCCC[C@H](NC(=O)OC(C)(C)C)C(=O)N1C[C@H](Oc3nccc4ccccc34)C[C@H]1C(=O)N2 [Compound 3, [18-(Isoquinolin-1-yloxy)-2,15-dioxo-4-(propane-2-sulfonylaminocarbonyl)-3,16-diaza-tricyclo-[14.3.0.0^4,6]nonadec-7-en-14-yl]-carbamic acid tert-butyl ester]	50 to 500
COc1ccc2c(OC3CC4C(=O)NC5(C(=O)NS(=O)(=O)C6CC6)CC5C=CCCCOC(C)C(NC(=O)NC5CCCC5)C(=O)N4C3)nccc2c1 (stereo not drawn) [Compound 65]	< 50
COCC(=O)NC1CCCCCC=CC2CC2(C(=O)NS(=O)(=O)C2CC2)NC(=O)C2CC(Oc3nccc4ccccc34)CN2C1=O (stereo not drawn) [Compound 24]	50 to 500
COc1ccc2c(OC3CC4C(=O)NC5(C(=O)NS(=O)(=O)C6CC6)CC5C=CCOCCCC(NC(=O)OC(C)(C)C)C(=O)N4C3)nccc2c1 (stereo not drawn) [Compound 28, [4-Cyclopropanesulfonylaminocarbonyl-18-(6-methoxy-isoquinolin-1-yloxy)-2,15-dioxo-10-oxa-3,16-diaza-tricyclo[14.3.0.0^4,6]nonadec-7-en-14-yl]-carbamic acid tert-butyl ester]	< 50
COc1ccc2c(OC3CC4C(=O)NC5(C(=O)NS(=O)(=O)C6CC6)CC5C=CCOCCCC(NC(=O)OC(C)C)C(=O)N4C3)nccc2c1 (stereo not drawn) [Compound 31]	< 50
O=C(CC1CC1)NC1CCCCCC=CC2CC2(C(=O)NS(=O)(=O)C2CC2)NC(=O)C2CC(Oc3nccc4ccccc34)CN2C1=O (stereo not drawn) [Compound 22]	< 50
COc1ccc2c(OC3CC4C(=O)NC5(C(=O)NS(=O)(=O)C6CC6)CC5C=CCCCCCC(NC(=O)N5CCCC5)C(=O)N4C3)nccc2c1 (stereo not drawn) [Compound 60]	< 50
COc1ccc2c(OC3C[C@H]4C(=O)N[C@]5(C(=O)NS(=O)(=O)C6CC6)C[C@H]5/C=C\CCCSC[C@H](NC(=O)OC(C)(C)C)C(=O)N4C3)nccc2c1 (stereo partly drawn) [Compound 18B, [4-Cyclopropanesulfonylaminocarbonyl-18-(6-methoxy-isoquinolin-1-yloxy)-2,15-dioxo-12-thia-3,16-diaza-tricyclo[14.3.0.0^4,6]nonadec-7-en-14-yl]-carbamic acid tert-butyl ester]	< 50
CCC1(S(=O)(=O)NC(=O)C23CC2C=CCCCSCC(NC(=O)NC2CCCC2)C(=O)N2CC(Oc4nccc5cc(OC)ccc45)CC2C(=O)N3)CC1 (stereo not drawn) [Compound 46]	< 50
CCC1(S(=O)(=O)NC(=O)C23CC2C=CCOCCCC(NC(=O)OC(C)(C)C)C(=O)N2CC(Oc4nccc5cc(OC)ccc45)CC2C(=O)N3)CC1 (stereo not drawn) [Compound 30]	< 50
CC(C)(C)OC(=O)N[C@H]1CCCCC/C=C\[C@@H]2C[C@@]2(C(=O)NS(=O)(=O)C2(Cc3ccccc3)CC2)NC(=O)[C@@H]2C[C@@H](Oc3nccc4ccccc34)CN2C1=O [Compound 5, [4-(1-Benzyl-cyclopropanesulfonylaminocarbonyl)-18-(isoquinolin-1-yloxy)-2,15-dioxo-3,16-diaza-tricyclo[14.3.0.0^4,6]nonadec-7-en-14-yl]-carbamic acid tert-butyl ester]	50 to 500
COc1ccc2c(OC3CC4C(=O)NC5(C(=O)NS(=O)(=O)C6CC6)CC5C=CCCCOC(C)C(NC(=O)OCC(C)(C)C)C(=O)N4C3)nccc2c1 (stereo not drawn) [Compound 63]	50 to 500
COc1ccc2c(OC3CC4C(=O)NC5(C(=O)O)CC5C=CCCCCCC(NC(=O)OC(C)(C)C)C(=O)N4C3)nccc2c1 (stereo not drawn) [Compound 17A]	50 to 500
CC(C)(CCl)OC(=O)NC1CCCCCC=CC2CC2(C(=O)NS(=O)(=O)C2CC2)NC(=O)C2CC(Oc3nccc4ccccc34)CN2C1=O (stereo not drawn) [Compound 52]	< 50
CC(C)(C)OC(=O)N[C@H]1CCCCC/C=C\[C@@H]2C[C@@]2(C(=O)NS(=O)(=O)C2CCC2)NC(=O)[C@@H]2C[C@@H](Oc3nccc4ccccc34)CN2C1=O [Compound 9, [4-Cyclobutanesulfonylaminocarbonyl-18-(isoquinolin-1-yloxy)-2,15-dioxo-3,16-diaza-tricyclo[14.3.0.0^4,6]nonadec-7-en-14-yl]-carbamic acid tert-butyl ester]	< 50
COc1ccc2c(OC3CC4C(=O)NC5(C(=O)NS(=O)(=O)C6(C)CC6)CC5C=CCCCOC(C)C(NC(=O)OCC(C)(C)C)C(=O)N4C3)nccc2c1 (stereo not drawn) [Compound 67]	50 to 500
CCC1(S(=O)(=O)NC(=O)C23CC2C=CCCCOC(C)C(NC(=O)NC2CCCC2)C(=O)N2CC(Oc4nccc5cc(OC)ccc45)CC2C(=O)N3)CC1 (stereo not drawn) [Compound 73]	50 to 500
N[C@H]1CCCCC/C=C\[C@@H]2C[C@@]2(C(=O)NS(=O)(=O)C2CC2)NC(=O)[C@@H]2C[C@@H](Oc3nccc4ccccc34)CN2C1=O [Compound 11, Cyclopropanesulfonic acid [14-amino-18-(isoquinolin-1-yloxy)-2,15-dioxo-3,16-diaza-tricyclo[14.3.0.0^4,6]nonadec-7-ene-4-carbonyl]-amide bis hydrochloride]	50 to 500
CCC1(S(=O)(=O)NC(=O)C23CC2C=CCCC[S+]([O-])CC(NC(=O)OC(C)(C)C)C(=O)N2CC(Oc4nccc5cc(OC)ccc45)CC2C(=O)N3)CC1 (stereo not drawn) [Compound 47]	< 50
COc1ccc2c(OC3CC4C(=O)NC5(C(=O)O)CC5C=CCCCCC(NC(=O)OC(C)(C)C)C(=O)N4C3)nccc2c1 (stereo not drawn) [Compound 143]	500 to 5000
